Data as given in PubChem BioAssay AID463206 (Broad Institute, 2010).
Activity calls are given as the source filed them.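 The calls were made as follows: active = caspase luminescence falls with dose and the half-maximal concentration AC50 from the fitted curve is at or below a set limit; inconclusive = flat fit at 30 to 70% signal loss, or invalid fit; inactive = AC50 above the limit, or signal rises instead.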

Test system: INS-1E cytokine-induced caspase-3/7, Caspase-Glo luminescence, 48 h
Test: inhibitors of cytokine-induced caspase-3/7 activity, dose response, orthogonal assay for beta-cell apoptosis protection project, INS-1E rat cells, luminescence (AID 463206)

**Q.** For Cc1cccc(NC(=S)N/N=C/c2ccc([N+](=O)[O-])s2)c1, which AC50 is on record?
**A.** The AC50 was > 26 µM (inactive).

**Q.** Which AC50 does the source give for Cc1ccc2c(c1)c(/C=C/c1cc[n+](C)cc1)c(C)n2C here?
**A.** The AC50 was > 26 µM (inactive).

**Q.** For Cc1ccc(OCc2cc(C(=O)N(C)Cc3cc(C4CC4)n[nH]3)no2)cc1C, which AC50 is on record?
**A.** Its AC50 is > 26 µM (inactive).

**Q.** For CC1(C)CC(N2CCN(c3ccccc3)CC2)=CC(=[N+]2CCCC2)C1, which AC50 is on record?
**A.** Its AC50 is > 26 µM (inactive).

**Q.** For Cc1ccc(C(C)C)c(OCc2nn(CC(=O)c3ccc(Cl)cc3)c3[n+]2CCCCC3)c1, which AC50 is on record?
**A.** Its AC50 is > 26 µM (inactive).

**Q.** For Cc1nnc(N/N=C/c2cc([N+](=O)[O-])c(N3CCC(C)CC3)cc2N2CCC(C)CC2)n1N, which AC50 is on record?
**A.** The AC50 was > 26 µM (inactive).

**Q.** For CCCC[C@@H](CN[C@H](C)CNC)NCC1CCC(C(C)(C)C)CC1 (stereo not given in full), which AC50 is on record?
**A.** Its AC50 is 25.6 µM.

**Q.** N=c1c2c(-c3ccccc3)c(-c3ccccc3)n(Cc3ccco3)c2ncn1CCCN1CCOCC1 was tested. Which AC50 did it give?
**A.** The AC50 was 16.7 µM.

**Q.** For CN(Cc1c(F)cccc1Cl)C(=O)c1cc2ccccc2o1, which AC50 is on record?
**A.** Its AC50 is > 26 µM (inactive).

**Q.** Which AC50 does the source give for O=C(N/N=C/c1cccc(F)c1)c1c(O)c2ccccc2[nH]c1=O here?
**A.** Its AC50 is > 26 µM (inactive).

**Q.** For CCCOC(=O)c1ccc(-[n+]2c(-c3ccccc3)cc(-c3ccccc3)cc2-c2ccccc2)cc1, which AC50 is on record?
**A.** The AC50 was > 26 µM (inactive).

**Q.** With O=C(N/N=C/c1cc(Br)ccc1O)C(=O)Nc1ccccc1OC(F)(F)C(F)F as the compound, how does the AC50 read?
**A.** The AC50 was > 26 µM (inactive).

**Q.** Clc1ccc2nnnc(-c3ccccc3)c2c1 was tested. Which AC50 did it give?
**A.** Its AC50 is > 26 µM (inactive).

**Q.** With CCn1c(/C=C/c2ccc([N+](=O)[O-])o2)nc2ccccc2c1=O as the compound, how does the AC50 read?
**A.** Its AC50 is > 26 µM (inactive).

**Q.** For O=c1[nH]c(=O)n(-c2ccc(F)cc2)c2c1C(C(F)(F)F)(C(F)(F)F)N=C(c1ccc(F)cc1)N2, which AC50 is on record?
**A.** Its AC50 is > 26 µM (inactive).

**Q.** CCCOc1ccc(Br)cc1CSC(=N)N was tested. Which AC50 did it give?
**A.** Its AC50 is > 12 µM (inactive).

**Q.** Cc1ccc2nc(-c3cccc(-c4cccc(Cl)c4)c3)c(NCc3ccccc3)n2c1 was tested. Which AC50 did it give?
**A.** Its AC50 is > 26 µM (inactive).

**Q.** For CCN(CC)c1ccc(/C=N/NC(=O)c2cccc(S(=O)(=O)N3CCOCC3)c2)c(O)c1, which AC50 is on record?
**A.** Its AC50 is > 26 µM (inactive).

**Q.** With O=C(NC1=C(Nc2ccc(F)cc2)C(=O)c2ccccc2C1=O)c1ccc(Cl)cc1 as the compound, how does the AC50 read?
**A.** Its AC50 is > 26 µM (inactive).

**Q.** COc1ccc(-n2c(-c3ccc(Cl)cc3)c[n+]3c2CCCCC3)cc1 was tested. Which AC50 did it give?
**A.** The AC50 was > 26 µM (inactive).

**Q.** With COC(=O)c1sc(-c2ccc(C(C)(C)C)cc2)cc1NC(=O)/C=C/C(=O)O as the compound, how does the AC50 read?
**A.** The AC50 was > 26 µM (inactive).

**Q.** How did the AC50 turn out when COc1ccc(/C=C2\CN(Cc3ccccc3)C/C(=C\c3ccc(OC)c(O)c3)C2=O)cc1O was run?
**A.** Its AC50 is > 26 µM (inactive).

**Q.** Which AC50 does the source give for C/C(=N\Nc1nc2ccccc2[nH]1)c1ccccn1 here?
**A.** Its AC50 is > 26 µM (inactive).

**Q.** With CCN(Cc1ccccc1)C(c1ccc(C(F)(F)F)cc1)c1nnnn1C(C)(C)C (stereo not given) as the compound, how does the AC50 read?
**A.** Its AC50 is > 26 µM (inactive).

**Q.** For COC(/C(=N/O)c1ccc(Cl)cc1)c1ccccc1 (stereo not given), which AC50 is on record?
**A.** Its AC50 is > 26 µM (inactive).

**Q.** With O=[N+]([O-])c1ccc(/C=N/n2cnc3ccccc32)s1 as the compound, how does the AC50 read?
**A.** The AC50 was > 26 µM (inactive).

**Q.** Which AC50 does the source give for O=C(NC1=C(Nc2ccc(Cl)cc2)C(=O)c2ccccc2C1=O)c1ccccc1 here?
**A.** The AC50 was > 26 µM (inactive).

**Q.** For CCN(CC)c1ccc(/C=N/NC(=O)c2ccoc2C)c(O)c1, which AC50 is on record?
**A.** The AC50 was > 26 µM (inactive).

**Q.** Cc1csc2c(N3CCN(C(=O)c4ccc(C(C)(C)C)cc4)CC3)ncnc12 was tested. Which AC50 did it give?
**A.** Its AC50 is > 26 µM (inactive).

**Q.** Which AC50 does the source give for Cc1ccc(C2(c3ccc(C)cc3)CC2C(=O)Nc2ccc([N+](=O)[O-])cc2O)cc1 (stereo not given) here?
**A.** Its AC50 is > 26 µM (inactive).

**Q.** Fc1ccc2nc(Nc3nc4c(F)cc(F)cc4s3)sc2c1 was tested. Which AC50 did it give?
**A.** Its AC50 is > 26 µM (inactive).

**Q.** O=C(Nc1cccnc1)c1cccs1 was tested. Which AC50 did it give?
**A.** Its AC50 is > 26 µM (inactive).

**Q.** Which AC50 does the source give for COc1ccccc1C(=O)Nc1nc2ccccc2[nH]1 here?
**A.** Its AC50 is > 26 µM (inactive).

**Q.** How did the AC50 turn out when CCOC(=O)c1cccc(-[n+]2c(-c3ccccc3)cc(-c3ccccc3)cc2-c2ccccc2)c1 was run?
**A.** The AC50 was > 26 µM (inactive).

**Q.** How did the AC50 turn out when CCNC(=O)Nc1cc(S(=O)(=O)Nc2ccc(OC)cc2)ccc1N1CCOCC1 was run?
**A.** The AC50 was > 26 µM (inactive).

**Q.** For CCN(CC)CCC(=O)Nc1cccc2c1C(=O)c1ccccc1C2=O, which AC50 is on record?
**A.** The AC50 was 2.26 µM.

**Q.** How did the AC50 turn out when CCOc1ccc(Nc2nc(Cc3nnc(SCC(=O)c4ccc(C)c(C)c4)o3)cs2)cc1 was run?
**A.** Its AC50 is > 26 µM (inactive).

**Q.** Which AC50 does the source give for CC(=O)C1=C(c2ccc(Br)cc2)C(=O)c2ccccc2C1=O here?
**A.** The AC50 was > 26 µM (inactive).

**Q.** With CCCCC(CC)CN1C(=O)/C(=C/c2ccncc2)SC1=S (stereo not given) as the compound, how does the AC50 read?
**A.** Its AC50 is > 26 µM (inactive).

**Q.** For C=C1C(O)[C@@H]2O[C@]3(CC[C@H](/C=C/C(C)[C@@H]4CC(C)=CC5(O[C@H](C[C@@](C)(O)CO)CCC5O)O4)O3)CC[C@H]2O[C@@H]1C(O)CC(C)[C@H]1OC2(CCCCO2)CCC1C (stereo not given in full), which AC50 is on record?
**A.** The AC50 was 3.84 µM.

**Q.** Which AC50 does the source give for S=C(c1cn(CCOc2cccc3ccccc23)c2ccccc12)N1CCCC1 here?
**A.** Its AC50 is > 26 µM (inactive).

**Q.** How did the AC50 turn out when O=C(Nc1ccc([N+](=O)[O-])cc1)Nc1ccc(Cl)cc1F was run?
**A.** The AC50 was > 26 µM (inactive).

**Q.** Which AC50 does the source give for O=C(c1ccc([N+](=O)[O-])s1)N1CCN(c2cccc(Cl)c2)CC1 here?
**A.** Its AC50 is > 26 µM (inactive).

**Q.** How did the AC50 turn out when CCOC(=O)c1sc(NC(=O)c2c(C)nn(Cc3ccccc3)c2C)cc1C was run?
**A.** Its AC50 is > 26 µM (inactive).

**Q.** CCC[N+]1(CC#CCC(c2ccccc2)c2ccccc2)CCCCC1 was tested. Which AC50 did it give?
**A.** Its AC50 is > 26 µM (inactive).

**Q.** With COc1ccc(NC(=O)N(C)C[C@H]2Oc3c(NS(=O)(=O)c4ccc(F)cc4)cccc3C(=O)N([C@H](C)CO)C[C@@H]2C)cc1 as the compound, how does the AC50 read?
**A.** Its AC50 is > 26 µM (inactive).

**Q.** For CC(=O)c1ccc(NC(=S)NCc2cccnc2)cc1, which AC50 is on record?
**A.** Its AC50 is > 26 µM (inactive).

**Q.** For Cc1cccc(C2(c3cccc(C)c3)OC(=O)c3ccccc32)c1, which AC50 is on record?
**A.** The AC50 was > 26 µM (inactive).

**Q.** Which AC50 does the source give for Cc1[nH]n(-c2ccccc2)c(=O)c1N=Nc1c(O)cc(S(=O)(=O)N(C)C)c2ccccc12 here?
**A.** The AC50 was > 26 µM (inactive).

**Q.** For COc1ccc(Cn2c(SCc3ccccc3C)nc3cc(OC)c(OC)cc3c2=N)cc1, which AC50 is on record?
**A.** Its AC50 is > 26 µM (inactive).

**Q.** CC(C)(C)OC(=O)NCCCCCc1cn([C@@H](CO)C(=O)NCCCCCCCCCCC(=O)N2CCN(C(=O)OC(C)(C)C)CC2)nn1 was tested. Which AC50 did it give?
**A.** The AC50 was > 26 µM (inactive).

**Q.** For Cc1cc(C(=O)C(C)OC(=O)c2ccc(NC(=O)CC#N)cc2)c(C)n1-c1ccc(OC(F)F)cc1 (stereo not given), which AC50 is on record?
**A.** Its AC50 is > 26 µM (inactive).

**Q.** For CC(NCC(O)COCCC12CC3CC(CC(C3)C1)C2)c1ccccc1 (stereo not given), which AC50 is on record?
**A.** Its AC50 is > 26 µM (inactive).

**Q.** Which AC50 does the source give for COc1cccc(F)c1C(C[N+](=O)[O-])c1c(N)n(C)c(=O)n(C)c1=O (stereo not given) here?
**A.** The AC50 was > 26 µM (inactive).

**Q.** CC[C@H]1CN2CCc3cc(OC)c(OC)cc3[C@@H]2C[C@@H]1C[C@H]1NCCc2cc(OC)c(OC)cc21 was tested. Which AC50 did it give?
**A.** The AC50 was > 26 µM (inactive).

**Q.** CCCCCCc1cc2cc(C(=O)Nc3cccc(OC)c3)c(=O)oc2cc1O was tested. Which AC50 did it give?
**A.** The AC50 was > 26 µM (inactive).

**Q.** How did the AC50 turn out when CCOC(=O)c1cnc(-n2nc(C)cc2C)nc1NCc1ccccc1 was run?
**A.** The AC50 was > 26 µM (inactive).

**Q.** Which AC50 does the source give for Cn1c2c(c(=O)n(C)c1=O)C(C(F)(F)F)(C(F)(F)F)N=C(c1ccc(Cl)cc1)N2 here?
**A.** Its AC50 is > 26 µM (inactive).

**Q.** Which AC50 does the source give for CCCC(=O)NC(c1ccc(C)cc1)c1ccc2cccnc2c1O (stereo not given) here?
**A.** Its AC50 is > 26 µM (inactive).

**Q.** How did the AC50 turn out when Cc1ccc2[nH]cc(/C=C/c3cc[n+](C)cc3)c2c1 was run?
**A.** The AC50 was > 26 µM (inactive).

**Q.** How did the AC50 turn out when CCOc1cccc(/C=N/Nc2ccc(S(=O)(=O)N(CC)CC)cn2)c1O was run?
**A.** Its AC50 is > 26 µM (inactive).

**Q.** Which AC50 does the source give for CC1CCc2c(sc3nc(C(C)(C)C)nc(N4CCN(C(=O)CCl)CC4)c23)C1 (stereo not given) here?
**A.** The AC50 was > 26 µM (inactive).

**Q.** COc1ccc(N(C)S(=O)(=O)c2cccc(C(=O)Nc3nc(C)c(C(C)=O)s3)c2)cc1 was tested. Which AC50 did it give?
**A.** Its AC50 is > 26 µM (inactive).

**Q.** Which AC50 does the source give for Cc1ccc(CSC(Nc2ccc(F)cc2)=C(C#N)C#N)cc1 here?
**A.** The AC50 was > 26 µM (inactive).

**Q.** How did the AC50 turn out when CC(=O)Nc1ccc(NC(=O)CN(c2cccc([N+](=O)[O-])c2)S(C)(=O)=O)cc1 was run?
**A.** The AC50 was > 26 µM (inactive).
